These results are taken from US8354436B2 (4SC Discovery GmbH, priority 2011, dated 2013).

Holding throughout (type): cell-based
What all share (settings): 48 hours

Assay [1] has as its system PBMC from healthy human donors. Kind of assay: T cell proliferation assay (PHA-stimulated human PBMC, BrdU ELISA). The method in brief: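 Healthy-donor PBMC isolated on Ficoll, seeded at 1×10⁵ cells/well in RPMI with 10% dialysed FCS, stimulated with 2 μg/ml PHA in presence of test compound. Proliferation read after 48 hours by BrdU-incorporation ELISA.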
Background: Dividing cells build labelled thymidine or BrdU into new DNA.

For assay [2], the system named is IL-17FF. Kind of assay: IL-17FF production by PHA-stimulated human PBMC (human IL-17F ELI-Pair). How it is done: Analysis of Proliferation of and Cytokine Production by Human PBMC Stimulated with PHA
Peripheral blood mononuclear cells (PBMC) from healthy human donors were purified using Accuspin™ System-Histopaque-1077 (Sigma) according to the protocol recommended by the manufacturer. Purified PBMC were then washed twice with phosphate-buffered saline (PBS) and resuspended in RPMI1640 culture medium supplemented with 10% dialyzed heat inactivated fetal calf serum, 1.5 mM L-glutamine, 100 U penicillin/ml, and […] (all from PAN Biotech, Aidenbach, Germany). For stimulation, PBMC were seeded at 1×10^5 cells/well, activated with 2 μg/ml phytohaemagglutinin (PHA, Sigma) and incubated with the test compounds for 48 hours. IL-17A, IL-17F and INF-γ were then determined in the culture supernatant using a Luminex BioPlex system, following the manufacturer's instructions (BioRad, Munich, Germany). For screening, compounds were used at 10, 1, 0.1 and 0.01 μM. To determine the IC50, compounds were titrated semilogarithmically.
Cytokines were determined in the aforementioned culture supernatant using the following methods: IL-17AA/AF was measured using the Luminex BioPlex system (BioRad, Munich, Germany); IL-17AA using the human homodimer IL-17A ELISA Ready Set Go Kit from eBioscience (Frankfurt, Germany); IL-17FF using the human IL-17F ELI-Pair from Hölzel DiagnosticaGmBH (Köln, Germany); and IFN-γ using the OptEIA human IFN-g ELISA from BD Bioscience (Heidelberg, Germany), all following the manufacturer's instructions.

The test system of assay [3] is IFN-γ. Kind of assay: IFN-γ production by PHA-stimulated human PBMC (OptEIA human IFN-g ELISA). The method in brief: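 Inhibition of PHA-driven (2 μg/ml) cytokine release from human PBMC at 1×10^5 cells/well, 48 h compound exposure. IC50 from semilog titrations.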
(In general: In an ELISA, binding on a coated surface is turned into a signal by an enzyme label.)

Setting [4] is: PHA-stimulated human PBMC, column D, read-out: IC50 (Tcell proliferation).
Setting [5] is: PHA-stimulated human PBMC, column B, read-out: IC50 (IL-17FF).
[6] abbreviates: PHA-stimulated human PBMC, column C, read-out: IC50 (IFNγ).
Where [7] appears, read: human PBMC, 2 μg/ml PHA, read-out: D: IC50 (Tcell proliferation).
Setting [8] is: human PBMC, 2 μg/ml PHA, read-out: B: IC50 (IL-17FF).
Where [9] appears, read: human PBMC, 2 μg/ml PHA, read-out: C: IC50 (IFNγ).

Where two headings read alike, the source gives them in different places.

`O=C(c1c(-c2ccccc2Cl)noc1-c1cnn(-c2cccc(Cl)c2)c1C(F)(F)F)N1CCCO1` [IB-62, (3-(2-chlorophenyl)-5-(1-(3-chlorophenyl)-5-(trifluoromethyl)-1H-pyrazol-4-yl)isoxazol-4-yl)(isoxazolidin-2-yl)methanone]: the IC50 in assay [1] (setting [4]), in assay [2] (setting [5]) and in assay [3] (setting [6]) was 10 to 100 nM throughout.

`CCOC(=O)c1c(-c2onc(-c3c(F)cccc3Cl)c2C(=O)OC)cnn1-c1ccc(Cl)cc1Cl` [Example I-6, methyl 3-(2-chloro-6-fluorophenyl)-5-(1-(2,4-dichlorophenyl)-5-(ethoxycarbonyl)-1H-pyrazol-4-yl)isoxazole-4-carboxylate]: the IC50 in assay [1] (setting [4]), in assay [2] (setting [5]) and in assay [3] (setting [6]) was 1000 to 10000 nM each time.

In the case of `O=C(c1c(-c2c(F)cccc2Cl)noc1-c1cnn(-c2ccccc2F)c1C(F)(F)F)N1CCCO1` [IB-52, (3-(2-chloro-6-fluorophenyl)-5-(1-(2-fluorophenyl)-5-(trifluoromethyl)-1H-pyrazol-4-yl)isoxazol-4-yl)(isoxazolidin-2-yl)methanone], the IC50 in assay [1] (setting [4]), in assay [2] (setting [5]) and in assay [3] (setting [6]) was 1000 to 10000 nM in each case.

Take `COc1cccc(Cl)c1-c1noc(-c2cnn(-c3ccccc3Cl)c2C(F)(F)F)c1-c1cnco1` [Example B-34, 3-(2-chloro-6-methoxyphenyl)-5-(1-(2-chlorophenyl)-5-(trifluoromethyl)-1H-pyrazol-4-yl)-4-(oxazol-5-yl)isoxazole]: the IC50 in assay [1] (setting [7]), in assay [2] (setting [8]) and in assay [3] (setting [9]) was 100 to 1000 nM in each case.

In the case of `Fc1cccc(-n2ncc(-c3onc(-c4c(F)cccc4Cl)c3-c3nnc(C(F)(F)F)o3)c2C(F)(F)F)c1` [Example 6, 2-(3-(2-chloro-6-fluorophenyl)-5-(1-(3-fluorophenyl)-5-(trifluoromethyl)-1H-pyrazol-4-yl)isoxazol-4-yl)-5-(trifluoromethyl)-1,3,4-oxadiazole], the IC50 in assay [1] (setting [7]), in assay [2] (setting [8]) and in assay [3] (setting [9]) was 10 to 100 nM throughout.

In the case of `CON(C)C(=O)c1c(-c2c(F)cccc2Cl)noc1-c1cnn(-c2cccc(F)c2)c1C(F)(F)F` [Example I-135, 3-(2-chloro-6-fluorophenyl)-5-(1-(3-fluorophenyl)-5-(trifluoromethyl)-1H-pyrazol-4-yl)-N-methoxy-N-methylisoxazole-4-carboxamide], the IC50 in assay [1] (setting [4]), in assay [2] (setting [5]) and in assay [3] (setting [6]) was 100 to 1000 nM throughout.

As to `COC(=O)c1c(-c2c(F)cccc2Cl)noc1-c1cnn(-c2cc(F)cc(F)c2)c1C(F)(F)F` [Example I-50, methyl 3-(2-chloro-6-fluorophenyl)-5-(1-(3,5-difluorophenyl)-5-(trifluoromethyl)-1H-pyrazol-4-yl)isoxazole-4-carboxylate], the IC50 in assay [1] (setting [4]), in assay [2] (setting [5]) and in assay [3] (setting [6]) was less than 10 nM each time.

As for `CCOC(=O)c1c(-c2c(F)cccc2Cl)noc1-c1cnn(CCOC)c1C(F)(F)F` [IB-2, ethyl 3-(2-chloro-6-fluorophenyl)-5-(l-(2-methoxyethyl)-5-(trifluoromethyl)-1H-pyrazol-4-yl)isoxazole-4-carboxylate], the IC50 in assay [1] (setting [4]) lay in the range of 1000 to 10000 nM; in assay [2] (setting [5]), 100 to 1000 nM; in assay [3] (setting [6]), 100 to 1000 nM.

`O=C(c1c(-c2c(F)cccc2Cl)noc1-c1cnn(-c2ccccc2Cl)c1C(F)(F)F)N1CCCO1` [IB-49, (3-(2-chloro-6-fluorophenyl)-5-(1-(2-chlorophenyl)-5-(trifluoromethyl)-1H-pyrazol-4-yl)isoxazol-4-yl)(isoxazolidin-2-yl)methanone]: the figures for the IC50 in assay [1] (setting [4]), in assay [2] (setting [5]) and in assay [3] (setting [6]) were 1000 to 10000 nM, 100 to 1000 nM and 1000 to 10000 nM, respectively.

For `NC(=S)c1c(-c2c(F)cccc2Cl)noc1-c1cnn(-c2ccccc2Cl)c1C(F)(F)F` [IB-101, 3-(2-chloro-6-fluorophenyl)-5-(1-(2-chlorophenyl)-5-(trifluoromethyl)-1H-pyrazol-4-yl)isoxazole-4-carbothioamide], the IC50 in assay [1] (setting [4]), in assay [2] (setting [5]) and in assay [3] (setting [6]) was 1000 to 10000 nM each time.

With `Fc1cccc(Cl)c1-c1noc(-c2cnn(-c3cccc(Cl)c3)c2C(F)(F)F)c1-c1nnco1` [Example B-5, 2-(3-(2-chloro-6-fluorophenyl)-5-(1-(3-chlorophenyl)-5-(trifluoromethyl)-1H-pyrazol-4-yl)isoxazol-4-yl)-1,3,4-oxadiazole], the IC50 in assay [1] (setting [7]), in assay [2] (setting [8]) and in assay [3] (setting [9]) was less than 10 nM each time.

`CCOC(=O)c1c(-c2c(Cl)cncc2Cl)noc1-c1cnn(-c2cccc(Cl)c2)c1C(F)(F)F` [IB-7, ethyl 5-(1-(3-chlorophenyl)-5-(trifluoromethyl)-1H-pyrazol-4-yl)-3-(3,5-dichloropyridin-4-yl)isoxazole-4-carboxylate]: the IC50 in assay [1] (setting [4]) lay within 1000 to 10000 nM; in assay [2] (setting [5]), 1000 to 10000 nM; in assay [3] (setting [6]) it was 100 to 1000 nM.

In the case of `CCOC(=O)c1c(-c2c(F)cccc2Cl)noc1-c1cnn(CC2CCCO2)c1C(F)(F)F` (stereo not drawn) [IB-96, ethyl 3-(2-chloro-6-fluorophenyl)-5-(1-((tetrahydrofuran-2-yl)methyl)-5-(trifluoromethyl)-1H-pyrazol-4-yl)isoxazole-4-carboxylate], the IC50 in assay [1] (setting [4]), in assay [2] (setting [5]) and in assay [3] (setting [6]) was 10 to 100 nM throughout.

As to `COC(=O)c1c(-c2c(F)cccc2Cl)noc1-c1cnn(CC(C)C)c1C(F)(F)F` [Example I-28], the IC50 in assay [1] (setting [4]) was in the range of 100 to 1000 nM; in assay [2] (setting [5]), 10 to 100 nM; in assay [3] (setting [6]), 10 to 100 nM.

Regarding `CCOC(=O)c1c(-c2c(Cl)cncc2Cl)noc1-c1cnn(-c2ccccc2F)c1C(F)(F)F` [IB-9, ethyl 3-(3,5-dichloropyridin-4-yl)-5-(1-(2-fluorophenyl)-5-(trifluoromethyl)-1H-pyrazol-4-yl)isoxazole-4-carboxylate], the IC50 in assay [1] (setting [4]), in assay [2] (setting [5]) and in assay [3] (setting [6]) was 10 to 100 nM in each case.

For `Cc1nnc(-c2c(-c3c(F)cccc3Cl)noc2-c2cnn(-c3ccccc3Cl)c2C(F)(F)F)o1` [Example B-18, 2-(3-(2-chloro-6-fluorophenyl)-5-(1-(2-chlorophenyl)-5-(trifluoromethyl)-1H-pyrazol-4-yl)isoxazol-4-yl)-5-methyl-1,3,4-oxadiazole], the IC50 in assay [1] (setting [7]), in assay [2] (setting [8]) and in assay [3] (setting [9]) was 1000 to 10000 nM each time.

As to `Cc1nnc(-c2c(-c3c(F)cccc3Cl)noc2-c2cnn(-c3cccc(Cl)c3)c2C(F)(F)F)o1` [Example B-4, 2-(3-(2-chloro-6-fluorophenyl)-5-(1-(3-chlorophenyl)-5-(trifluoromethyl)-1H-pyrazol-4-yl)isoxazol-4-yl)-5-methyl-1,3,4-oxadiazole], the IC50 in assay [1] (setting [7]), in assay [2] (setting [8]) and in assay [3] (setting [9]) was less than 10 nM each time.

For the molecule `Nc1c(-c2c(F)cccc2Cl)noc1-c1cnn(-c2cccc(Cl)c2)c1C(F)(F)F` [IB-36, 3-(2-chloro-6-fluorophenyl)-5-(1-(3-chlorophenyl)-5-(trifluoromethyl)-1H-pyrazol-4-yl)isoxazol-4-amine], the IC50 in assay [1] (setting [4]), in assay [2] (setting [5]) and in assay [3] (setting [6]) was 100 to 1000 nM in each case.
